“Also recorded” adds a separate entry of the source.
Key:
wt-PKR = wt-PKR (Homo sapiens, UniProt P30613); experiment: Enzyme assay of PKR kinetics and activation (Example 3); assay type: biochemical; conditions: PEP at or below Km
Procedure: The ability of Compound 1 to activate PKR in enzyme-based assays was measured.
Tests were conducted in the presence and absence of fructose-1,6-bisphosphate (FBP), a known allosteric activator of PKR.

[1] = test system: estradiol and testosterone levels; experiment: Circulating estradiol and testosterone in healthy subjects, 14 days; assay type: in vivo, human; conditions: up to 14 days, 100-300 mg BID, 400 mg QD
Procedure: Effects on circulating levels of estradiol and testosterone in male and female healthy subjects receiving Compound 1 or placebo for a treatment period of 14 days were evaluated. Compound 1 was administered twice daily (BID) at dose levels of 100 mg, 200 mg, and 300 mg, and once daily (QD) at a dose level of 400 mg. Each dosing cohort was comprised of 9 subjects treated with Compound 1 and 3 subjects treated with placebo. Testosterone and estradiol levels were assessed prior to dosing (baseline), and then on days 8, 14 and 17.

[2] = Phase 1: plasma pharmacokinetics in SCD patients; assay type: in vivo; conditions: human, oral, SCD (N = 5), single dose 700 mg
Text: This is a first-in-human (FIH), Phase 1 study of Compound 1 that will characterize the safety, PK, and PD of Compound 1 after a single dose and after repeated dosing first in healthy adult volunteers and then in adolescents or adults with sickle cell disease. Initially, a dose range of Compound 1 in single ascending dose (SAD) escalation cohorts will be explored in healthy subjects. Enrollment of healthy subjects into 2-week multiple ascending dose (MAD) escalation cohorts will be initiated once the safety and PK from at least two SAD cohorts is available to inform the doses for the 2-week MAD portion of the study. The MAD cohorts will then run in parallel to the single dose cohorts. A single dose cohort is planned to understand food effects (FE) on the PK of Compound 1. […] Multiple dose studies in SCD subjects will then be initiated upon completion of MAD studies in healthy volunteers. Compound 1 will be administered in 25 mg and 100 mg tablets delivered orally, prepared as described in Example 1, Step 7.
In this study, SAD/MAD cohorts are randomized (3 to 1) to receive Compound 1 or placebo (P). Compound 1 was evaluated first in 4 healthy SAD cohorts and 4 healthy MAD (14-day dosing period) cohorts. Based on the safety, and PK/PD profile from HS, Compound 1 is then evaluated in 1 SCD SAD cohort and 2 SCD MAD cohorts. Specifically, based on the safety and pharmacokinetic/pharmacodynamics (PK/PD) profile in healthy volunteer studies, Compound 1 is evaluated in patients (pts) with SCD, first in a single dose (SD or SAD) cohort and then in multiple-dose (MD or MAD) cohorts (14-day and 12-week). Safety assessments include AEs, vital signs, ECGs and laboratory parameters. PK/PD blood sampling was performed on Day 1 (SAD/MAD) and Day 14 (MAD) and up to 72 h after the last dose and at the end-of-study visit. PD parameters included 2,3-DPG, ATP, and p50 in all cohorts with additional PD studies (including oxygen scan) performed only in the SCD cohorts. PD parameters included 2,3-DPG, ATP, p50, RBC deformability with controlled deoxygenation and reoxygenation (Lorrca® oxygen scan) and varying osmolality (Lorrca® osmoscan)). To maintain study blind, pt identifiers were removed when needed.
A potential exposure to the maximum PD response dose range to evaluate in patients with SCD was identified. Based on the safety and PK/PD profile in healthy volunteer studies, a 700 mg single dose was evaluated in patients with SCD (n=7). A single 700 mg dose of Compound 1 was selected to evaluate in patients with SCD to enable daily dosing cohorts at lower exposures.
In the SCD single dose cohort, seven patients received either Compound 1 (n=5) or placebo (n=2).

[3] = Phase 1: safety, adverse events in SCD patients; assay type: in vivo, human
Procedure: All SCD patients who received a single 700 mg dose of Compound 1 or placebo were monitored for adverse events for 7 days. The incidence of treatment emergent adverse events (TEAEs) in SCD patients receiving Compound 1 (700 mg) or placebo are reported in Table 23. Six TEAEs were reported in 4 patients; all TEAEs were grade 1 and transient. Specifically, six TEAEs were reported in 4 of 7 (57%) patients, including 3 TEAEs (arthralgia, headache, palpitations) in 2 of 5 (40%) pts receiving Compound 1 and 3 TEAEs (back pain, myalgia, pruritis) in 2 of 2 (100%) pts receiving placebo; all TEAEs were grade 1 and transient. […] One possibly related TEAE (palpitations) occurred about 8 hours post dose. No other symptoms were observed, and the palpitations resolved in <1 minute. […] The single 700 mg dose of Compound 1 was considered tolerable, and the first multiple dose SCD cohort was initiated.
Based on data from the MAD1 (300 mg once daily for 14 days), Compound 1 is well-tolerated in patients with SCD. In all, eighteen TEAEs were reported in 7 of 9 patients in the MAD1 (300 mg once daily) cohort (N=9). These included (a) eight Grade 1 TEAEs, including 3 patients c/o headache, 1 each of nausea, constipation, somnolence, increased LDH and increased AST, of which two AEs considered to be possibly related to study treatment were reported by one patient each (1 AE of headache and 1 AE of nausea); (b) six Grade 2 TEAEs, including 3 uncomplicated sickle pain events (in 2 patients), 1 patient with N/V and 1 increased reticulocytes, of which no AEs were considered related to study treatment, all AEs of pain events were considered unrelated and consistent with each patient's SCD pain history, and all AEs were treated with patient's standard home pain medications (no SAE/no hospitalization); and (c) one Grade 4 TEAE of elevated creatine kinase, unrelated to study treatment. Non-treatment-related AEs were consistent with events experienced in this patient population. No treatment-related serious AEs were reported.

[4] = test system: H295R adreno-cortical carcinoma cell line; experiment: Cell viability (MTT Kit); assay type: cell-based; conditions: at 200 μM
Procedure: To assess potential effects on steroidogenesis, Compound 1 was screened for steroid modulation in vitro using the H295R adreno-cortical carcinoma cell line (at 200 to 0.0002 μM) and in an assay to monitor cell viability (MTT Kit). Compound 1 indicated steroid modulation potential (% over vehicle) only at 200 μM, the top concentration tested, with 100% cellular viability at concentrations≤20 μM (90% viability at 200 μM).

CYP3A4 = target: T1, CYP3A4 (Homo sapiens, UniProt P08684); experiment: Single substrate DDI assay, reversible CYP inhibition in human liver microsomes; assay type: in vitro ADME
T1 construct: from tissue; host or cells: human liver microsomes
T1 sequence (P08684 whole entry): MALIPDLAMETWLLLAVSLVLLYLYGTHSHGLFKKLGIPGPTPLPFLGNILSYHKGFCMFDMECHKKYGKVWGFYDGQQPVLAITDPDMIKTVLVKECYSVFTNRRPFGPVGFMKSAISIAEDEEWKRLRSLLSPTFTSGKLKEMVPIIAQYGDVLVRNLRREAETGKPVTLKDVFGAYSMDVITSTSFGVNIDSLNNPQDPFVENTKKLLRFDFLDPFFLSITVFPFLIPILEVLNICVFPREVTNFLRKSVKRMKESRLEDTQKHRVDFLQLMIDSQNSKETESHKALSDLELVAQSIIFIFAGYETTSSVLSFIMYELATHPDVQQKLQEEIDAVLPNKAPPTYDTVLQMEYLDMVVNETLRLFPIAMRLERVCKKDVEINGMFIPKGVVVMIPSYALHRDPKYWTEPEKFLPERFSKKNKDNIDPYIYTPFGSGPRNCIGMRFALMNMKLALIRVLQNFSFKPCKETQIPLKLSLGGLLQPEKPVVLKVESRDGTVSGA

Permeability Papp (A-B) = assay type: in vitro ADME; conditions: not told
[5] = SCD MAD1, 300 mg × 14 days, n = 7

wt-PKR, sequence (P30613 whole entry): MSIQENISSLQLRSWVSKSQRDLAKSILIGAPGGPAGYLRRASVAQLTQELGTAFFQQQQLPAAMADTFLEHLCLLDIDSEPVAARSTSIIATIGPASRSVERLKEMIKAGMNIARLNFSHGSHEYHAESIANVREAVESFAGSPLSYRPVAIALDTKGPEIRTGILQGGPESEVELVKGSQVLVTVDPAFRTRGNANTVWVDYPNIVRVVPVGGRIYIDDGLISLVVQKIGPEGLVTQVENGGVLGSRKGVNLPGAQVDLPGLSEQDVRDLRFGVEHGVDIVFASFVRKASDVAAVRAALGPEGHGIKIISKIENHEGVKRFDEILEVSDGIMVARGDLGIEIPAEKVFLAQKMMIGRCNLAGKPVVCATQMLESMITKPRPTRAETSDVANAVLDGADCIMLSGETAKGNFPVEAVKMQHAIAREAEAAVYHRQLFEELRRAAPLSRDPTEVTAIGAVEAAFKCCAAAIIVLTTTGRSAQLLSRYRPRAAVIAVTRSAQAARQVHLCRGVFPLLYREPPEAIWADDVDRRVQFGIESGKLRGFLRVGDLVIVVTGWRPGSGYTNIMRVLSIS

## O=C([C@H](CO)c1ccccc1)N1CC2=C(C1)CN(S(=O)(=O)c1cnc3c(c1)OCCO3)C2 (single isomer, unassigned) [Compound 1]
wt-PKR
  AC50: < 0.1 µM
[1]
  effect on testosterone and estradiol levels: No effect; also recorded: no statistically significant changes
[2]; geometric mean (geometric CV)
  AUC(0-inf): 7.3 µg·h/mL
  Cmax: 2.58 µg/mL
  half-life: 14.9 h
[2]; median [min, max]
  Tmax: 2 h
[3]; [5]
  Any serious adverse event (SAE), n (%): 0 n (%)
  TEAE related to study drug, n (%): 2 (29%) n (%)
[3]; SCD single dose cohort
  serious adverse events or TEAEs leading to withdrawal: No serious adverse events (SAEs) or TEAEs leading to pt withdrawal
[3]; SCD, single dose 700 mg, N = 5
  Any TEAE, n (%): 2 (40) n (%)
  TEAE related to study drug, n (%): 1 (20) n (%)
[4]
  cellular viability: 90%
CYP3A4
  IC50: > 30 µM
Permeability Papp (A-B)
  Papp A→B: 54.6 nm/s

Reference: patent US20220087983A1, “ACTIVATING PYRUVATE KINASE R” (FORMA Therapeutics, Inc., priority 2020, published 2022)
